Measurements from US20260034173A1, “USE OF MANGANESE-CONTAINING COMPOUND IN REDUCING LEVEL OF URIC ACID OF MAMMALIAN SUBJECT” (Shanghai Shiqu Pharmaceutical Technology Co., Ltd., priority 2022, published 2026).

What was measured:
[1] = test system: urate oxidase knockout (UOX KO) mice; assay: Experiment on urate oxidase knockout (UOX KO) mice; assay type: in vivo; settings: gavage daily; blood and 24-hour urine
Text: Urate oxidase knockout (UOX KO) mice aged 6 to 8 weeks were selected, and urine and blood were collected after one week of acclimation to test urine uric acid and blood uric acid levels. […] Mice were gavaged with corresponding drugs daily. After the start of drug administration, the blood of mice was collected every other week to prepare serum, and 24-hour urine was collected to detect the uric acid content in the urine using a uric acid assay kit.

[2] = test system: oteracil potassium and adenine induced hyperuricemia model mice; assay: Oteracil potassium and adenine induced hyperuricemia model mice; assay type: in vivo, KM mice; settings: day 6; allopurinol 50 mg/L drinking water, febuxostat 5 mg/kg/day gavage, manganese oxides 1.16 w/w % in diet
Text: Oteracil potassium and adenine are known to be model drugs capable of inducing hyperuricemia in mice. Specifically, oteracil potassium is a urate oxidase inhibitor that can inhibit further metabolism of uric acid in mice, thereby increasing the concentration of uric acid in the blood of mice; adenine can damage the kidneys, thereby reducing the excretion of uric acid from the kidneys of mice. […] Six days after the beginning of the experiment, 24-hour urine of each group of mice was collected and uric acid content in the urine was detected by the uric acid assay kit to investigate the effects of various experimental substances on the amount of uric acid excreted in the urine of mice.
The control group was fed with basic mouse diet the first day (i.e. the day of the experiment) to the seventh day after the start of the experiment, and the other groups were fed with modeling mouse diet (4.4 w/w % oteracil potassium and 0.44 w/w % adenine were added into the basic mouse diet) for inducing hyperuricemia. […] The uric acid level in urine was measured using a uric acid assay kit (Solarbio, Beijing, China), and the amount of uric acid excreted through urine in 24 hours was calculated based on the urine volume.

[3] = test system: oteracil potassium and hypoxanthine induced hyperuricemia model mice; assay: Oteracil potassium and hypoxanthine induced hyperuricemia model mice; assay type: in vivo, C57BL/6J mice; settings: day 8; benzbromarone 10 mg/kg gavage, allopurinol 50 mg/L drinking water, manganese oxides 1.14 w/w % in diet
Method: Hypoxanthine can be metabolized into uric acid in the body, so it can also be used in combination with oteracil potassium as a model drug for inducing hyperuricemia in mice. In this example, the healthy mice were randomly divided into 7 groups, the mouse hyperuricemia model was established by administering oteracil potassium and hypoxanthine (they were injected intraperitoneally together) to 6 groups of mice, and 1 group of healthy mice injected intraperitoneally with normal saline was taken as the blank control group. The mice of the experimental groups were given the corresponding experimental substances according to the dosing regimen described in the following experimental method.
From the first day (i.e. the day of the experiment) to the eighth day after the start of the experiment, the blank control group was intraperitoneally injected with normal saline at 9:00 a.m. and 5:00 p.m. every day, and the remaining groups were intraperitoneally injected with modeling solution (100 mg/kg hypoxanthine+100 mg/kg oteracil potassium) at 9:00 am, and 5:00 p.m. every day. The benzbromarone group was administered with benzbromarone solution (10 mg/kg) by gavage at 10 am every day. […]

SMILES	reduction of uric acid in UOX KO mice [1]	amount of uric acid excreted in the urine within 24 hours (FIG. 20) [2]	serum uric acid level (FIG. 22) [3]
Oc1ncnc2[nH]ncc12 [allopurinol]	effective in reducing uric acid	at a high level	significantly reduced
CCc1oc2ccccc2c1C(=O)c1cc(Br)c(O)c(Br)c1 [benzbromarone]	–	–	significantly reduced
Cc1nc(-c2ccc(OCC(C)C)c(C#N)c2)sc1C(=O)O [febuxostat]	–	at a high level	–
